# Assays:
# Type in all cases: biochemical
# MERTK = molecular target: T1, MERTK (Homo sapiens, UniProt Q12866); test: Kinase profiling (ProQinase 33PanQinase Activity Assay), MERTK (table: MERK)
# T1 sequence (Q12866 21-999): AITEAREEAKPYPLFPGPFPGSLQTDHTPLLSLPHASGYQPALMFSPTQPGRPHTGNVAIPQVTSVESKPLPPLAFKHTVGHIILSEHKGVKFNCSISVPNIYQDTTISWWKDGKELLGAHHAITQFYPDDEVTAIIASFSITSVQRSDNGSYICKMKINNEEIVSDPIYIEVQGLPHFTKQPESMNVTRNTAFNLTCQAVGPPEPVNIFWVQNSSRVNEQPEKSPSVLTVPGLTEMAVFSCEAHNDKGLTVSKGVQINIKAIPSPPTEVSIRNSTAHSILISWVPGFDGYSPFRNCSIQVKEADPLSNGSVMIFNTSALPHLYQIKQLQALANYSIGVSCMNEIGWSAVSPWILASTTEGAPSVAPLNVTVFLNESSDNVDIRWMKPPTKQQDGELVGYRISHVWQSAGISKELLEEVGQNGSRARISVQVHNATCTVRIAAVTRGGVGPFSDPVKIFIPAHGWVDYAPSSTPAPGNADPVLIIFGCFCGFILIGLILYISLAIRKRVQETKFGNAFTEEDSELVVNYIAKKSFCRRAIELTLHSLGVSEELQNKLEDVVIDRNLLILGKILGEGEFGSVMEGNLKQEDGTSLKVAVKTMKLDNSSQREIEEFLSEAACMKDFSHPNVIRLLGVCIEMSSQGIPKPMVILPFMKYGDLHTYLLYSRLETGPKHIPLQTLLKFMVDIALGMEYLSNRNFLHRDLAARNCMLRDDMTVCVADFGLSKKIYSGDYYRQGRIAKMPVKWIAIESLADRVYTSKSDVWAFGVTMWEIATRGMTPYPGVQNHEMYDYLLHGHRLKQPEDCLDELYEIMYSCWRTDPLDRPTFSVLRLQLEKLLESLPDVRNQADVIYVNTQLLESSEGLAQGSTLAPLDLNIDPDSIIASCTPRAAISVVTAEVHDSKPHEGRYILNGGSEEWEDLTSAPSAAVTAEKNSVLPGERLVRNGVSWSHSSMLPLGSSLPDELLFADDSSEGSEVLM
# Experimental: (§1) The kinase profiling of compound 1-08 at 10 and 50 μM was performed by ProQinase GmbH (Freiburg, Germany). A radiometric protein kinase assay (^33PanQinase® Activity Assay) and the non-radiometric ADP-Glo™ Assay (Promega, Madison, Wis., USA) were used for measuring kinase activity of 387 protein kinases and 13 lipid kinases, respectively. The results are shown in Table 3 (only the top 10 kinases are listed, and the selectivity score describes the portion of kinases inhibited more than 50% in relation to all tested kinases).
# At 10 μM, compound 1-08 inhibited MERTK at the 51% level. Several other kinases were inhibited at 50 μM concentration.
# SRC = SRC (Homo sapiens, UniProt P12931); test: Kinase profiling (ProQinase 33PanQinase Activity Assay), SRC; settings: read-out: residual activity, SRC
# Experimental: as §1
# LYN = LYN (Homo sapiens, UniProt P07948); test: Kinase profiling (ProQinase 33PanQinase Activity Assay), LYN; settings: read-out: residual activity, LYN
# Experimental: as §1
# Sequence of SRC (P12931 whole entry): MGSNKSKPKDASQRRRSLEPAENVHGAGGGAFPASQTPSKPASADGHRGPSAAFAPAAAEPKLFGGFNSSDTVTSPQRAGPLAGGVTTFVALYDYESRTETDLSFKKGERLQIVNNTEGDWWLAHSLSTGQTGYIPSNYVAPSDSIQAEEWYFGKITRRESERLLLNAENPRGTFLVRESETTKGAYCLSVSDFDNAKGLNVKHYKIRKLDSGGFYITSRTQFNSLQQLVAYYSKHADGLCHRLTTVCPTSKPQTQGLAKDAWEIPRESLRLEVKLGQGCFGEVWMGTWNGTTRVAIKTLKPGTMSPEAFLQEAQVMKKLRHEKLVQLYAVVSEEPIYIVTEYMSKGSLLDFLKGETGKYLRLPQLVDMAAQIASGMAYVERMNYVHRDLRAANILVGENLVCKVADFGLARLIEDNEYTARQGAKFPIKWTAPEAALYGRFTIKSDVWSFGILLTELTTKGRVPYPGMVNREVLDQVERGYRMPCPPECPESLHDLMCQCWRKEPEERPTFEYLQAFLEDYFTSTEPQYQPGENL
# Sequence of LYN (P07948 whole entry): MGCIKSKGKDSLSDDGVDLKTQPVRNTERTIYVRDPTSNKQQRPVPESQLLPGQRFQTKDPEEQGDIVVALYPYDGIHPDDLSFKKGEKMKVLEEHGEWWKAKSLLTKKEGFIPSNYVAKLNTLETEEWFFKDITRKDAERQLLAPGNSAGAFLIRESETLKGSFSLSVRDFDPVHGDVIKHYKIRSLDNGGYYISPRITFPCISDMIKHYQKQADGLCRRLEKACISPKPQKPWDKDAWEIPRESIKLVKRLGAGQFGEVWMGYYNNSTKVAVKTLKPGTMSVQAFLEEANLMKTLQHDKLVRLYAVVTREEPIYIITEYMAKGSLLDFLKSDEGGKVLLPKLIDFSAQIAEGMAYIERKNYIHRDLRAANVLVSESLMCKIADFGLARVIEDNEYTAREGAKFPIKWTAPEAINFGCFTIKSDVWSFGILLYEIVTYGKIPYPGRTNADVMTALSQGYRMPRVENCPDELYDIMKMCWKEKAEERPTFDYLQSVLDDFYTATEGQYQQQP
smiles,measurement,setting,value
"O=C(CCCc1ccc(-c2cnc3ccccc3c2)cc1)Nc1ccc(O)cc1 [Compound 1-08, N-(4-hydroxyphenyl)-4-(4-(quinolin-3-yl)phenyl)butanamide]",inhibition at 10 µM,MERTK; 10 μM compound,51%
same,remaining activity at 10 µM,"MERTK; 10 μM compound, read-out: residual activity, MERK",49%
same,remaining activity at 50 µM,"MERTK; 50 μM compound, read-out: residual activity, MERK",12%
same,remaining activity at 10 µM,SRC; 10 μM compound,57%
same,remaining activity at 50 µM,SRC; 50 μM compound,21%
same,remaining activity at 10 µM,LYN; 10 μM compound,87%
same,remaining activity at 50 µM,LYN; 50 μM compound,21%

# Reference: patent publication US10745355B2, “Anti-cancer compounds” (THE UNIVERSITY OF SYDNEY, priority 2015, dated 2020)
